Experimental data reported in patent publication US8618088B2, “Methods of inhibiting choroidal neovascularization” (University of Pennsylvania, priority 2002, dated 2013).

Key:
[1] = test system: choroidal neovascularization (CNV); assay: Matrigel subretinal injection model of choroidal neovascularization (CNV), Vessel Paint staining and fluorescence microscopy; assay type: in vivo, Sprague-Dawley rats
Method: In search of effective treatments for CNV, a simple animal model was created by injecting 2-3µl Matrigel™ to the subretinal space of adult Sprague-Dawley rats using a 33-gauge needle connected to a 10µl Hamilton microsyringe. A week or more later the animals were sacrificed by CO2 inhalation and perfused with Vessel Paint, a new visualization technique recently developed in the inventors' lab that enables screening agents, including chemical compounds and proteins, for their potential in inhibiting CNV (Wen, ARVO Abstract, March 2002). Vessel Painting comprises the use of a solution containing DiI, followed by 4% paraformaldehyde solution, and is discussed further below.
The anterior portion of the eye, including the cornea and lens, was removed, and the eyecup was imbedded in 5% agarose. […] Eye sections were examined by fluorescence microscopy for neovascularization in the Matrigel™ deposit. […] Protein leakage of the new vessels was detected by assessing color change in the Matrigel™ deposit after intravenous injection of Evan's Blue dye. […]
Adult Sprague-Dawley rats (n=22) were injected with Matrigel™ to the subretinal space. […] Tissue sections were examined by fluorescence microscopy. […]
Eyes were collected 10 days after injection and blood vessels were stained with Vessel Paint. […] CNV was examined by fluorescence microscopy and CNV index of each eye was calculated.

Solubility in water = assay type: physicochemical

| SMILES | CNV index (mean) ([1]; suspension in Matrigel 10 μg/μl, 1.2 μl subretinal, 10 days after injection) | solubility in water (Solubility in water) | effect on the normal vasculature of the eye ([1]; all experiments) |
| --- | --- | --- | --- |
| C=CC[C@@H]1/C=C(\C)C[C@H](C)C[C@H](OC)[C@H]2O[C@@](O)(C(=O)C(=O)N3CCCC[C@H]3C(=O)O[C@H](/C(C)=C/[C@@H]3CC[C@@H](O)[C@H](OC)C3)[C@H](C)[C@@H](O)CC1=O)[C@H](C)C[C@@H]2OC [FK506] | Mean = 12.67 (n = 6) | not water soluble |  |
| CO[C@H]1C[C@@H]2CC[C@@H](C)[C@@](O)(O2)C(=O)C(=O)N2CCCC[C@H]2C(=O)O[C@H]([C@H](C)C[C@@H]2CC[C@@H](O)[C@H](OC)C2)CC(=O)[C@H](C)/C=C(\C)[C@@H](O)[C@@H](OC)C(=O)[C@H](C)C[C@H](C)/C=C/C=C/C=C/1C [rapamycin] |  | not soluble in water | no discernable effect |
